{"source": "patent US20220288057A1", "about": "“CONJOINT THERAPY FOR TREATING SEIZURE DISORDERS” (XENON PHARMACEUTICALS INC., priority 2021, published 2022)", "key": {"CF-1 mice": {"test_system": "CF-1 mice", "experiment": "Observation for clinical signs in 6 Hz studies", "type": "in vivo, mouse", "details": "Compound A 8 mg/kg PO, Study 3A", "method": "Any qualitative changes from normal behavior were recorded."}, "[1]": {"experiment": "Plasma and brain concentrations after MES testing (UHPLC-ESI-MS/MS);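 also: brain and plasma were sampled from mice right after the efficacy test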", "details": "for concentration at 0.5 h / concentration at 2 h: CF-1, mouse, in vivo, po"}, "[2]": {"details": "Compound A 0.25 mg/kg PO 2 h alone (phenytoin study), 0.25 mg/kg"}, "[3]": {"details": "Compound A 0.75 mg/kg PO 2 h alone (phenytoin study), 0.75 mg/kg"}, "[4]": {"details": "Compound A 1 mg/kg PO 2 h alone (levetiracetam study), 1 mg/kg"}, "[5]": {"details": "Compound A 1 mg/kg PO 2 h alone (phenytoin study), 1 mg/kg"}, "[6]": {"details": "Compound A 1 mg/kg PO 2 h alone (valproic acid study), 1 mg/kg"}, "[7]": {"details": "Compound A 2.5 mg/kg PO 2 h alone (phenytoin study), 2.5 mg/kg"}, "[8]": {"details": "analyte Compound A, 0.25 mg/kg + 2 mg/kg Phenytoin"}, "[9]": {"details": "analyte Compound A, 0.75 mg/kg + 2 mg/kg Phenytoin"}, "[10]": {"details": "analyte Compound A, 1 mg/kg + 2 mg/kg Phenytoin"}, "[11]": {"details": "analyte Compound A, 1 mg/kg PO + 100 mg/kg Valproic Acid IP"}}, "note": "Where “and” joins values, the source holds several entries; their conditions need not be identical. Identical values can stand only once."}
{"smiles": "Cc1cc(N2CCc3cc(F)ccc3C2)cc(C)c1NC(=O)CC(C)(C)C", "note": "[Compound A, N-[4-(6-fluoro-3,4-dihydro-1H-isoquinolin-2-yl)-2,6-dimethylphenyl]-3,3-dimethylbutanamide]", "values": [{"measurement": "brain concentration of the one animal that showed tremor and was cold to the touch", "setting": "CF-1 mice", "result": 1.65, "unit": "µM"}, {"measurement": "plasma concentration of the one animal that showed tremor and was cold to the touch", "setting": "CF-1 mice", "result": 1.16, "unit": "µM"}, {"measurement": "concentration at 0.5 h", "setting": "[1]; 1 mg/kg, Concentration Brain, Compound A 1 mg/kg PO single dose, tissue collection 0.5 hr", "result": 270, "unit": "nM"}, {"measurement": "concentration at 2 h", "setting": "[1]; 1 mg/kg, Concentration Brain, Compound A 1 mg/kg PO single dose, tissue collection 2 hr", "result": 190, "unit": "nM"}, {"measurement": "concentration at 0.5 h", "setting": "[1]; 1 mg/kg, Concentration Brain, Compound A 1 mg/kg PO, 0.5 hr", "result": 97.9, "unit": "ng/g"}, {"measurement": "concentration at 2 h", "setting": "[1]; 1 mg/kg, Concentration Brain, Compound A 1 mg/kg PO, 2 hr", "result": 70.2, "unit": "ng/g"}, {"measurement": "concentration at 0.5 h", "setting": "[1]; 1 mg/kg, Concentration Plasma, Compound A 1 mg/kg PO single dose, tissue collection 0.5 hr", "result": 130, "unit": "nM"}, {"measurement": "concentration at 2 h", "setting": "[1]; 1 mg/kg, Concentration Plasma, Compound A 1 mg/kg PO single dose, tissue collection 2 hr", "result": 100, "unit": "nM"}, {"measurement": "concentration at 0.5 h", "setting": "[1]; 1 mg/kg, Concentration Plasma, Compound A 1 mg/kg PO, 0.5 hr", "result": 48.9, "unit": "ng/mL"}, {"measurement": "concentration at 2 h", "setting": "[1]; 1 mg/kg, Concentration Plasma, Compound A 1 mg/kg PO, 2 hr", "result": 35.8, "unit": "ng/mL"}, {"measurement": "concentration at 0.5 h", "setting": "[1]; 2 mg/kg, Concentration Brain, Compound A 2 mg/kg PO single dose, tissue collection 0.5 hr", "result": 360, "unit": "nM"}, {"measurement": "concentration at 2 h", "setting": "[1]; 2 mg/kg, Concentration Brain, Compound A 2 mg/kg PO single dose, tissue collection 2 hr", "result": 210, "unit": "nM"}, {"measurement": "concentration at 0.5 h", "setting": "[1]; 2 mg/kg, Concentration Brain, Compound A 2 mg/kg PO, 0.5 hr", "result": 132, "unit": "ng/g"}, {"measurement": "concentration at 2 h", "setting": "[1]; 2 mg/kg, Concentration Brain, Compound A 2 mg/kg PO, 2 hr", "result": 75.8, "unit": "ng/g"}, {"measurement": "concentration at 0.5 h", "setting": "[1]; 2 mg/kg, Concentration Plasma, Compound A 2 mg/kg PO single dose, tissue collection 0.5 hr", "result": 220, "unit": "nM"}, {"measurement": "concentration at 2 h", "setting": "[1]; 2 mg/kg, Concentration Plasma, Compound A 2 mg/kg PO single dose, tissue collection 2 hr", "result": 130, "unit": "nM"}, {"measurement": "concentration at 0.5 h", "setting": "[1]; 2 mg/kg, Concentration Plasma, Compound A 2 mg/kg PO, 0.5 hr", "result": 80.7, "unit": "ng/mL"}, {"measurement": "concentration at 2 h", "setting": "[1]; 2 mg/kg, Concentration Plasma, Compound A 2 mg/kg PO, 2 hr", "result": 46.7, "unit": "ng/mL"}, {"measurement": "concentration at 0.5 h", "setting": "[1]; 4 mg/kg, Concentration Brain, Compound A 4 mg/kg PO single dose, tissue collection 0.5 hr", "result": 640, "unit": "nM"}, {"measurement": "concentration at 2 h", "setting": "[1]; 4 mg/kg, Concentration Brain, Compound A 4 mg/kg PO single dose, tissue collection 2 hr", "result": 360, "unit": "nM"}, {"measurement": "concentration at 0.5 h", "setting": "[1]; 4 mg/kg, Concentration Brain, Compound A 4 mg/kg PO, 0.5 hr", "result": 235, "unit": "ng/g"}, {"measurement": "concentration at 2 h", "setting": "[1]; 4 mg/kg, Concentration Brain, Compound A 4 mg/kg PO, 2 hr", "result": 131, "unit": "ng/g"}, {"measurement": "concentration at 0.5 h", "setting": "[1]; 4 mg/kg, Concentration Plasma, Compound A 4 mg/kg PO single dose, tissue collection 0.5 hr", "result": 420, "unit": "nM"}, {"measurement": "concentration at 2 h", "setting": "[1]; 4 mg/kg, Concentration Plasma, Compound A 4 mg/kg PO single dose, tissue collection 2 hr", "result": 230, "unit": "nM"}, {"measurement": "concentration at 0.5 h", "setting": "[1]; 4 mg/kg, Concentration Plasma, Compound A 4 mg/kg PO, 0.5 hr", "result": 154, "unit": "ng/mL"}, {"measurement": "concentration at 2 h", "setting": "[1]; 4 mg/kg, Concentration Plasma, Compound A 4 mg/kg PO, 2 hr", "result": 83, "unit": "ng/mL"}, {"measurement": "concentration at 0.5 h", "setting": "[1]; 8 mg/kg, Concentration Brain, Compound A 8 mg/kg PO single dose, tissue collection 0.5 hr", "result": 1090, "unit": "nM"}, {"measurement": "concentration at 2 h", "setting": "[1]; 8 mg/kg, Concentration Brain, Compound A 8 mg/kg PO single dose, tissue collection 2 hr", "result": 560, "unit": "nM"}, {"measurement": "concentration at 0.5 h", "setting": "[1]; 8 mg/kg, Concentration Brain, Compound A 8 mg/kg PO, 0.5 hr", "result": 402, "unit": "ng/g"}, {"measurement": "concentration at 2 h", "setting": "[1]; 8 mg/kg, Concentration Brain, Compound A 8 mg/kg PO, 2 hr", "result": 208, "unit": "ng/g"}, {"measurement": "concentration at 0.5 h", "setting": "[1]; 8 mg/kg, Concentration Plasma, Compound A 8 mg/kg PO single dose, tissue collection 0.5 hr", "result": 710, "unit": "nM"}, {"measurement": "concentration at 2 h", "setting": "[1]; 8 mg/kg, Concentration Plasma, Compound A 8 mg/kg PO single dose, tissue collection 2 hr", "result": 430, "unit": "nM"}, {"measurement": "concentration at 0.5 h", "setting": "[1]; 8 mg/kg, Concentration Plasma, Compound A 8 mg/kg PO, 0.5 hr", "result": 261, "unit": "ng/mL"}, {"measurement": "concentration at 2 h", "setting": "[1]; 8 mg/kg, Concentration Plasma, Compound A 8 mg/kg PO, 2 hr", "result": 158, "unit": "ng/mL"}, {"measurement": "Brain concentration, Mean", "setting": "[1]; [2]", "result": 0.04, "unit": "µM"}, {"measurement": "Plasma concentration, Mean", "setting": "[1]; [2]", "result": "0.01 μM and 4.3 ng/mL"}, {"measurement": "Brain concentration, Mean", "setting": "[1]; [3]", "result": 0.12, "unit": "µM"}, {"measurement": "Plasma concentration, Mean", "setting": "[1]; [3]", "result": "0.03 μM and 11.7 ng/mL"}, {"measurement": "Brain concentration, Mean", "setting": "[1]; [4]", "result": 0.06, "unit": "µM"}, {"measurement": "Plasma concentration, Mean", "setting": "[1]; [4]", "result": "0.03 μM and 11.1 ng/mL"}, {"measurement": "Brain concentration, Mean", "setting": "[1]; [5]", "result": 0.09, "unit": "µM"}, {"measurement": "Plasma concentration, Mean", "setting": "[1]; [5]", "result": "0.05 μM and 17.0 ng/mL"}, {"measurement": "Brain concentration, Mean", "setting": "[1]; [6]", "result": 0.16, "unit": "µM"}, {"measurement": "Plasma concentration, Mean", "setting": "[1]; [6]", "result": "0.066 μM and 24 ng/mL"}, {"measurement": "Concentration Plasma", "setting": "[1]; Compound A 1 mg/kg PO single dose, tissue collection 2 hr, 1 mg/kg", "result": 0.10, "unit": "µM"}, {"measurement": "Brain concentration, Mean", "setting": "[1]; [7]", "result": 0.39, "unit": "µM"}, {"measurement": "Plasma concentration, Mean", "setting": "[1]; [7]", "result": "45.1 ng/mL and 0.12 μM"}, {"measurement": "Brain concentration, Mean", "setting": "[1]; [8]", "result": 0.05, "unit": "µM"}, {"measurement": "Plasma concentration, Mean", "setting": "[1]; [8]", "result": "0.02 μM and 5.6 ng/mL"}, {"measurement": "Brain concentration, Mean", "setting": "[1]; [9]", "result": 0.15, "unit": "µM"}, {"measurement": "Plasma concentration, Mean", "setting": "[1]; [9]", "result": "0.04 μM and 16.0 ng/mL"}, {"measurement": "Brain concentration, Mean", "setting": "[1]; [10]", "result": 0.10, "unit": "µM"}, {"measurement": "Plasma concentration, Mean", "setting": "[1]; [10]", "result": "0.05 μM and 19.0 ng/mL"}, {"measurement": "Brain concentration, Mean", "setting": "[1]; [11]", "result": 0.097, "unit": "µM"}, {"measurement": "Plasma concentration, Mean", "setting": "[1]; [11]", "result": "0.042 μM and 15 ng/mL"}, {"measurement": "Brain concentration, Mean", "setting": "[1]; analyte Compound A, 2.5 mg/kg + 2 mg/kg Phenytoin", "result": 0.51, "unit": "µM"}]}
